Reference: patent US12371428B2 (Exelixis, Inc., priority 2019, dated 2025)
Where two headings read alike, the source gives them in different places.

Legend:
[1] = biological target: Human MET (residues 956-1390) (Homo sapiens (Human), UniProt P08581); assay: Human Met kinase assay, HTRF KinEase (Example D-2); type: biochemical; settings: read-out: c-Met IC50
Method in brief: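 IC50 values come from a 4-parameter logistic fit of the […] fluorescence ratio, set between DMSO (100%) and reference compound at 1 μM (0%). Reactions held MET 956-1390 at 0.1 ng/well, ATP at Km, biotinylated peptide, 5 mM MgCl2, 1 mM MnCl2, 1 mM DTT and 3% DMSO, and ran 40 min at room temperature before streptavidin-XL665/Eu-antibody detection.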

[2] = biological target: Human KDR (residues 790-1356) (Homo sapiens (Human), UniProt P35968); assay: Human KDR kinase assay, HTRF KinEase (Example B-2); type: biochemical
Method in brief: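 Ten compound concentrations (3% DMSO final) were pre-plated, then KDR (790-1356) with biotinylated peptide in Mg/Mn/DTT buffer was added; ATP at Km (4.0 μM) started a 40 min room-temperature reaction. Detection used Eu-TK antibody and SA-XL665 in EDTA buffer; activity normalized to DMSO and reference inhibitor, IC50 by logistic fit.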

[3] = biological target: Human MER (residues 528-999) (Homo sapiens (Human), UniProt Q12866); assay: Human Mer kinase assay, HTRF KinEase (Example C-2); type: biochemical
Method in brief: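 IC50 values from 10 concentrations via 4-parameter logistic fit of […], with DMSO as 100% and 1 μM reference compound as 0% activity. Reaction: MER kinase domain 528-999, 1 ng/well, 40 μM ATP (Km), biotin peptide, 5 mM MgCl2, 1 mM DTT, 3% DMSO, room temperature 60 min; HTRF streptavidin-XL665/Eu-antibody detection.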

[4] = biological target: Mer (phospho-Mer, MERTK-transfected 293A cells) (Homo sapiens (Human), UniProt Q12866); assay: Mer autophosphorylation ELISA in transient transfected 293A cells (Example H); type: cell-based; settings: cellular activity; Mer autophosphorylation ELISA in transient transfected 293A cells
Method in brief: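 IC50 from 4-parameter logistic fit of phospho-Mer levels, quantified by ELISA against a phospho-Mer standard in lysates of MERTK-transfected 293A cells. Cells exposed 1 h to 8-point serial dilutions, serum-free, 0.3% DMSO; controls: DMSO (100%) and reference inhibitor (0%).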

[5] = protocol of Example D-2 (other compounds)
[6] = protocol of Example B-2 (other compounds)
[7] = protocol of Example C-2 (other compounds)

Chain of Human MET (residues 956-1390) (P08581 956-1390): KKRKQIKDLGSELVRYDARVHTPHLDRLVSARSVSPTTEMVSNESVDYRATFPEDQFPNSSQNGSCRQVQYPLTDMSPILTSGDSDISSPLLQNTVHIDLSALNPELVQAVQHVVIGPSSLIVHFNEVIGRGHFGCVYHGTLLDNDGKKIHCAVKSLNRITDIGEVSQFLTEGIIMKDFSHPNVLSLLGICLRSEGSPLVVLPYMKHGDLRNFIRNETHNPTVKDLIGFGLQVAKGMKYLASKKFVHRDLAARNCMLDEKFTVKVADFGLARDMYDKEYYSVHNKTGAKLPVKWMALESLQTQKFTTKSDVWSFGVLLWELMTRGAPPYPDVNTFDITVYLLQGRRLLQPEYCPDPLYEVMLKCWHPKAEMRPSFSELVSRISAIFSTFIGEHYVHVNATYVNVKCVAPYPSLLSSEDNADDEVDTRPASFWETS
Chain of Human MER (residues 528-999) (Q12866 528-999): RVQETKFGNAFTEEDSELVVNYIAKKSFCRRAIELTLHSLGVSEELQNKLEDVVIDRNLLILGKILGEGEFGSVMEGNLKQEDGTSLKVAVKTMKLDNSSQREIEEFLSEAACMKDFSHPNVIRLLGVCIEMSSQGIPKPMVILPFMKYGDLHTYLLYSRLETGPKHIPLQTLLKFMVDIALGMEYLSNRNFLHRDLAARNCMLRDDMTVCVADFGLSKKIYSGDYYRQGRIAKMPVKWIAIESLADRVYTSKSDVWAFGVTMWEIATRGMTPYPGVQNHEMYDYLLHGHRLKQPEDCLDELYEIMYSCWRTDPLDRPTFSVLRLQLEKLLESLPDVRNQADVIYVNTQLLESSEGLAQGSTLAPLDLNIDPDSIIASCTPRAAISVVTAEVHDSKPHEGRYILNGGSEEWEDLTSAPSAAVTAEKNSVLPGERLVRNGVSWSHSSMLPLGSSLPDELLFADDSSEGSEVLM
Chain of Mer (phospho-Mer, MERTK-transfected 293A cells) (Q12866 21-999): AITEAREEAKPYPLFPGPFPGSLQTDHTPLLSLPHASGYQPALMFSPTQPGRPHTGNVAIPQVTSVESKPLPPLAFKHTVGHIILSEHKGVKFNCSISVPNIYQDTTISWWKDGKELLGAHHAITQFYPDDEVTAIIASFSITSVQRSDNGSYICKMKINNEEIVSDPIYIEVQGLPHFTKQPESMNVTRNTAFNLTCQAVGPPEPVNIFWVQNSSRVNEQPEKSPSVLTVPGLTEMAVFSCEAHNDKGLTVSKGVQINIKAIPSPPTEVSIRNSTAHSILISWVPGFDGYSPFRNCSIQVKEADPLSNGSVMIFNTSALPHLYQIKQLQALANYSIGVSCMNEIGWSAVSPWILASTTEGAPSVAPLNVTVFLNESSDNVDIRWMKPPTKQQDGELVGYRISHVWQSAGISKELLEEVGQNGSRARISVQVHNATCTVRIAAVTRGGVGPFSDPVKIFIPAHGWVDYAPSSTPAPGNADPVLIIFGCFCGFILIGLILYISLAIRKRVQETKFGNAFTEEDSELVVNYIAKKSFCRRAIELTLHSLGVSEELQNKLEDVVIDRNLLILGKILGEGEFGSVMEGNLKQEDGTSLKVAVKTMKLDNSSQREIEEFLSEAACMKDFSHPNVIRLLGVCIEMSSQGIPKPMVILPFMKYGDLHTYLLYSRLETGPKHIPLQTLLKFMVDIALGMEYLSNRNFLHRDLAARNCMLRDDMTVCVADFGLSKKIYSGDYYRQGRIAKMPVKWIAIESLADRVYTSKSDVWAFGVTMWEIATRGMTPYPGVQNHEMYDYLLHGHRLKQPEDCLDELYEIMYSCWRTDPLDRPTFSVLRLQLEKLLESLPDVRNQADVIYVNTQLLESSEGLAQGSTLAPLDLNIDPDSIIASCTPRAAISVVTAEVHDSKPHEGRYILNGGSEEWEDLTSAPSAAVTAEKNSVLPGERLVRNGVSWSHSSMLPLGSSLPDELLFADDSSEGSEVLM
Chain of Human KDR (residues 790-1356) (P35968 790-1356): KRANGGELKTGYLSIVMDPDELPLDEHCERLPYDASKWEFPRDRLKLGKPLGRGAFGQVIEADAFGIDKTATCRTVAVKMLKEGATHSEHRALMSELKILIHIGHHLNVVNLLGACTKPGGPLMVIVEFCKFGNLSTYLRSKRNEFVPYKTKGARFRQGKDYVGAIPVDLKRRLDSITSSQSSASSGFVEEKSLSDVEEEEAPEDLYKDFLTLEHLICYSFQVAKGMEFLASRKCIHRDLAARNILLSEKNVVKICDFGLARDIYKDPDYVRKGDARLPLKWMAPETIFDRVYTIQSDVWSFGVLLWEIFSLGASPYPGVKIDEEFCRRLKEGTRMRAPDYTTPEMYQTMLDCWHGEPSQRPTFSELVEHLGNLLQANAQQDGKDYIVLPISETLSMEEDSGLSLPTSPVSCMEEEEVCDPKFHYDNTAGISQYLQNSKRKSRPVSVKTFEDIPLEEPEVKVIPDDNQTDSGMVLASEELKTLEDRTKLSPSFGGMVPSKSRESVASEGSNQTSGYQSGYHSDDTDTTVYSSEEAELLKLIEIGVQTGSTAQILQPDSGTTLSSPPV

Compound | IC50 ([1]; protocol of Example D-2) [nM] | IC50 ([2]; protocol of Example B-2) [nM] | IC50 ([3]; protocol of Example C-2) [nM] | IC50 [4] [nM] | IC50 [1, 5] [nM] | IC50 [2, 6] [nM] | IC50 [3, 7] [nM]
COCCOc1cnc2c(Oc3ccc(NC(=O)c4c(C)nc(C)c(-c5ccc(F)cc5)c4O)cc3F)ccnc2c1 [Compound 555, N-[3-Fluoro-4-[[7-(2-methoxyethoxy)-1,5-naphthyridin-4-yl]oxy]phenyl]-5-(4-fluorophenyl)-4-hydroxy-2,6-dimethylpyridine-3-carboxamide] | < 100 | < 100 | < 100 | < 100 |  |  | 
COCCOc1ccc2nccc(Oc3ccc(NC(=O)c4cnc(C)c(-c5ccc(F)cc5)c4O)cc3F)c2n1 [Compound 348, N-[3-fluoro-4-[[6-(2-methoxyethoxy)-1,5-naphthyridin-4-yl]oxy]phenyl]-5-(4-fluorophenyl)-4-hydroxy-6-methylpyridine-3-carboxamide] |  |  |  | < 100 | < 100 | 100 to 300 | < 100
COc1cc2nccc(Oc3ccc(NC(=O)c4cc(C)nn(-c5ccc(F)cc5)c4=O)cc3F)c2nc1OC [Compound 519, N-[4-[(6,7-dimethoxy-1,5-naphthyridin-4-yl)oxy]-3-fluorophenyl]-2-(4-fluorophenyl)-6-methyl-3-oxopyridazine-4-carboxamide] | 100 to 300 | > 300 | < 100 | < 100 |  |  | 
COCCOc1cc2nccc(Oc3ccc(NC(=O)c4c(COC)nc(C)c(-c5ccc(F)cc5)c4O)cc3F)c2nc1OC [Compound 482, N-[3-fluoro-4-[[6-methoxy-7-(2-methoxyethoxy)-1,5-naphthyridin-4-yl]oxy]phenyl]-5-(4-fluorophenyl)-4-hydroxy-2-(methoxymethyl)-6-methylpyridine-3-carboxamide] | < 100 | < 100 | < 100 | < 100 |  |  | 
CCn1cc(C(=O)Nc2ccc(Oc3ccnc4cc(OC)c(OC)nc34)c(F)c2)c(=O)c(-c2ccc(F)cc2)c1CF [Compound 562, N-[4-[(6,7-Dimethoxy-1,5-naphthyridin-4-yl)oxy]-3-fluorophenyl]-1-ethyl-6-(fluoromethyl)-5-(4-fluorophenyl)-4-oxopyridine-3-carboxamide] | 100 to 300 | > 300 | < 100 | < 100 |  |  | 
C=C(C)c1cnc2c(Oc3ccc(NC(=O)c4cnc(C)c(-c5ccc(F)cc5C)c4O)cc3)ccnc2c1 [Compound 448, 5-(4-fluoro-2-methylphenyl)-4-hydroxy-6-methyl-N-[4-[(7-prop-1-en-2-yl-1,5-naphthyridin-4-yl)oxy]phenyl]pyridine-3-carboxamide] | < 100 | 100 to 300 | < 100 | < 100 |  |  | 
COCCOc1nc2c(Oc3ccc(NC(=O)c4cn(C)c(CF)c(-c5ccc(F)cc5)c4=O)cc3F)ccnc2cc1OC [Compound 557, N-[3-Fluoro-4-[[7-methoxy-6-(2-methoxyethoxy)-1,5-naphthyridin-4-yl]oxy]phenyl]-6-(fluoromethyl)-5-(4-fluorophenyl)-1-methyl-4-oxopyridine-3-carboxamide] | < 100 | 100 to 300 | < 100 | < 100 |  |  | 
COc1cnc2c(Oc3ccc(NC(=O)c4nn(C)c(C)c(-c5ccc(F)cc5C)c4=O)cc3F)ccnc2c1 [Compound 513, N-[3-fluoro-4-[(7-methoxy-1,5-naphthyridin-4-yl)oxy]phenyl]-5-(4-fluoro-2-methylphenyl)-1,6-dimethyl-4-oxopyridazine-3-carboxamide] | < 100 | < 100 | < 100 | < 100 |  |  | 
CCn1cc(C(=O)Nc2ccc(Oc3ccnc4cc(OC)cnc34)c(F)c2)c(=O)c(-c2ccc(F)cc2)c1CF [Compound 559, 1-Ethyl-N-[3-fluoro-4-[(7-methoxy-1,5-naphthyridin-4-yl)oxy]phenyl]-6-(fluoromethyl)-5-(4-fluorophenyl)-4-oxopyridine-3-carboxamide] | < 100 | > 300 | < 100 | < 100 |  |  | 
COCc1nc(C)c(-c2ccc(F)cc2C)c(O)c1C(=O)Nc1ccc(Oc2ccnc3ccc(OC)nc23)cc1 [Compound 516, 5-(4-fluoro-2-methylphenyl)-4-hydroxy-2-(methoxymethyl)-N-[4-[(6-methoxy-1,5-naphthyridin-4-yl)oxy]phenyl]-6-methylpyridine-3-carboxamide] | < 100 | > 300 | < 100 | < 100 |  |  | 
C=C(C)c1cnc2c(Oc3ccc(NC(=O)c4cnc(C)c(-c5ccc(F)cc5C)c4O)cc3F)ccnc2c1 [Compound 450, 5-(4-fluoro-2-methylphenyl)-N-[3-fluoro-4-[(7-prop-1-en-2-yl-1,5-naphthyridin-4-yl)oxy]phenyl]-4-hydroxy-6-methylpyridine-3-carboxamide] | < 100 | 100 to 300 | < 100 | < 100 |  |  | 
COc1cnc2c(Oc3ccc(NC(=O)c4c(C)n(C)c(C)c(-c5ccc(F)cc5)c4=O)cc3F)ccnc2c1 [Compound 508, N-[3-fluoro-4-[(7-methoxy-1,5-naphthyridin-4-yl)oxy]phenyl]-5-(4-fluorophenyl)-1,2,6-trimethyl-4-oxopyridine-3-carboxamide] | < 100 | > 300 | < 100 | < 100 |  |  | 
Cc1ccc2nccc(Oc3ccc(NC(=O)c4c(C)nc(C)c(-c5ccc(F)cc5C)c4O)cc3F)c2n1 [Compound 506, N-[3-fluoro-4-[(6-methyl-1,5-naphthyridin-4-yl)oxy]phenyl]-5-(4-fluoro-2-methylphenyl)-4-hydroxy-2,6-dimethylpyridine-3-carboxamide] | < 100 | > 300 | < 100 | < 100 |  |  | 
Cc1ccc(C(=O)Nc2ccc(Oc3ccnc4cc(O)cnc34)c(F)c2)c(=O)n1-c1ccc(F)cc1 [Compound 551, N-[3-Fluoro-4-[(7-hydroxy-1,5-naphthyridin-4-yl)oxy]phenyl]-1-(4-fluorophenyl)-6-methyl-2-oxopyridine-3-carboxamide] | < 100 | 100 to 300 | < 100 | < 100 |  |  | 
C=C(C)c1cnc2c(Oc3ccc(NC(=O)c4cnc(C)c(-c5ccc(F)cc5)c4O)cc3F)ccnc2c1 [Compound 456, 5-(4-fluorophenyl)-N-[3-fluoro-4-[(7-prop-1-en-2-yl-1,5-naphthyridin-4-yl)oxy]phenyl]-4-hydroxy-6-methylpyridine-3-carboxamide] | < 100 | < 100 | < 100 | < 100 |  |  | 
COc1ccc2nccc(Oc3ccc(NC(=O)c4cn(C)c(CF)c(-c5ccc(F)cc5)c4=O)cc3F)c2n1 [Compound 561, N-[3-Fluoro-4-[(6-methoxy-1,5-naphthyridin-4-yl)oxy]phenyl]-6-(fluoromethyl)-5-(4-fluorophenyl)-1-methyl-4-oxopyridine-3-carboxamide] | 100 to 300 | > 300 | < 100 | < 100 |  |  | 
COc1cc2nccc(Oc3ccc(NC(=O)c4cc(C)nn(-c5ccc(F)cc5)c4=O)cc3)c2nc1OC [Compound 520, N-[4-[(6,7-dimethoxy-1,5-naphthyridin-4-yl)oxy]phenyl]-2-(4-fluorophenyl)-6-methyl-3-oxopyridazine-4-carboxamide] | < 100 | > 300 | < 100 | < 100 |  |  | 
COc1cc2nccc(Oc3ccc(NC(=O)c4cn(CC(F)(F)F)c(C)c(-c5ccc(F)cc5)c4=O)cc3)c2cc1OC [Compound 260, N-[4-(6,7-Dimethoxyquinolin-4-yl)oxyphenyl]-5-(4-fluorophenyl)-6-methyl-4-oxo-1-(2,2,2-trifluoroethyl)pyridine-3-carboxamide] |  |  |  | < 100 | < 100 | > 300 | < 100
COc1cnc2c(Oc3ccc(NC(=O)c4cn(C)c(C)c(-c5ccc(F)cc5C)c4=O)cc3)ccnc2c1 [Compound 187, 5-(4-Fluoro-2-methylphenyl)-N-[4-[(7-methoxy-1,5-naphthyridin-4-yl)oxy]phenyl]-1,6-dimethyl-4-oxopyridine-3-carboxamide] |  |  |  | < 100 | < 100 | > 300 | < 100
COc1cnc2c(Oc3ccc(NC(=O)c4ccnn(-c5ccc(F)cc5C)c4=O)cc3)ccnc2c1 [Compound 530, 2-(4-fluoro-2-methylphenyl)-N-[4-[(7-methoxy-1,5-naphthyridin-4-yl)oxy]phenyl]-3-oxopyridazine-4-carboxamide] | 100 to 300 | > 300 | 100 to 300 | < 100 |  |  | 
